Test results published in ChEMBL document CHEMBL5465560, “Selectivity Literature for EUbOPEN Chemogenomic Library” (2024).
pIC50: −log10 of the molar value.

How the values were obtained:
[1] = target: T1, Alpha-1B adrenergic receptor (Homo sapiens) (UniProt P35368); assay: Selectivity interaction (GPCR panel (PDSP screen)) EUB0001079a ADRA1B; conditions: at 10 µM
T1 sequence (whole entry): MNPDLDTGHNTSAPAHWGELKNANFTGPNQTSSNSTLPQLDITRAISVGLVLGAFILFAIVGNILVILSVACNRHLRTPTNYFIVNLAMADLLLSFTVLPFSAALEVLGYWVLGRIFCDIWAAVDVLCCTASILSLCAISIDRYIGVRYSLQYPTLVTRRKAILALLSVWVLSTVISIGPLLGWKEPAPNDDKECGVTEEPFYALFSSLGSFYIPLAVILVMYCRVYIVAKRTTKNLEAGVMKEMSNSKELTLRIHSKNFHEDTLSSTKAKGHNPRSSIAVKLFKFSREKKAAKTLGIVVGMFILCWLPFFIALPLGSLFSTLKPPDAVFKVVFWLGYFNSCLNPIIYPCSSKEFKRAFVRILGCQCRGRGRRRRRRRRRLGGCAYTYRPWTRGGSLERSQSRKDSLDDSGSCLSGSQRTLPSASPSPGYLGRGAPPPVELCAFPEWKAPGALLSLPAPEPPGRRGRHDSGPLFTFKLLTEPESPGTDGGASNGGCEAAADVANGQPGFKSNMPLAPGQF

[2] = target: T2, Protein kinase C zeta type (Homo sapiens) (UniProt Q05513); assay: Selectivity interaction (Kinase panel (Z-LYTE Assay)) EUB0001632a PRKCZ; conditions: at 10 µM
T2 sequence (whole entry): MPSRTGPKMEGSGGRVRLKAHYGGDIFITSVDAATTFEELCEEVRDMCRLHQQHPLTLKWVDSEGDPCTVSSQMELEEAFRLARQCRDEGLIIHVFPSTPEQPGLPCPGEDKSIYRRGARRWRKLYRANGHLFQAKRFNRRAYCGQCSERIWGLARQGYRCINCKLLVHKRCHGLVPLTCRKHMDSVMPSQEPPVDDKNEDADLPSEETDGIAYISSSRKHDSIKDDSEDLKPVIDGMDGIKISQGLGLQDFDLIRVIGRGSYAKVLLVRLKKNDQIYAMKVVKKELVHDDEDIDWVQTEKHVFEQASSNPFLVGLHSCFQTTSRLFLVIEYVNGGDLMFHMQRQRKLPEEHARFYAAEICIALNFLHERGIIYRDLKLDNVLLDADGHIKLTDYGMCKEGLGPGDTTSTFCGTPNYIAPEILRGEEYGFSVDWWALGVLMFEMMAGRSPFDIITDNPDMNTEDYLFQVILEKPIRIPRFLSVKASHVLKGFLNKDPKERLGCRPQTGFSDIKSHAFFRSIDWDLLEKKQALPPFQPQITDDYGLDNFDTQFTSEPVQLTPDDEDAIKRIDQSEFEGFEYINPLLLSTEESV

[3] = target: Eukaryotic translation initiation factor 2-alpha kinase 1 (Homo sapiens) (UniProt Q9BQI3); assay: Selectivity interaction (KinomeScan (DiscoverX)) EUB0000666a EIF2AK1; conditions: at 10 µM
Sequence of Eukaryotic translation initiation factor 2-alpha kinase 1 (Homo sapiens) (Q9BQI3 whole entry): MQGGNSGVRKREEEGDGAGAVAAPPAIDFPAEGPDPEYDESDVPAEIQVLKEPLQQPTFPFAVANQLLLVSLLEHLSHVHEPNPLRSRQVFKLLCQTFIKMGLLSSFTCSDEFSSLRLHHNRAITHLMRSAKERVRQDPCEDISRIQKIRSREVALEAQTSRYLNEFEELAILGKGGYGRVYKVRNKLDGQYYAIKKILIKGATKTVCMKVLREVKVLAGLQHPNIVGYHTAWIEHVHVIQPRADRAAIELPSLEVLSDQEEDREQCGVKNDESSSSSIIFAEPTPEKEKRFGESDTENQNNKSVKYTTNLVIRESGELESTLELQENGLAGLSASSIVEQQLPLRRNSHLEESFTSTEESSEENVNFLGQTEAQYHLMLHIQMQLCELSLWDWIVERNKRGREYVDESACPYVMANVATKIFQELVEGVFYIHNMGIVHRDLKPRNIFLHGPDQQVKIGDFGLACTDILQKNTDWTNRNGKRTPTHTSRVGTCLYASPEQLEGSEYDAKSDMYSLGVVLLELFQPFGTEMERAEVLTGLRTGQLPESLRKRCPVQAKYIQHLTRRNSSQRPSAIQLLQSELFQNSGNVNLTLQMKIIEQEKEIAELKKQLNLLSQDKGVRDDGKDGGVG

[4] = target: Thromboxane A2 receptor (Homo sapiens, UniProt P21731); assay: Selectivity interaction (Thromboxane A2 receptor binding assay, human recombinant) EUB0000877a TBXA2R
Sequence of Thromboxane A2 receptor (P21731 whole entry): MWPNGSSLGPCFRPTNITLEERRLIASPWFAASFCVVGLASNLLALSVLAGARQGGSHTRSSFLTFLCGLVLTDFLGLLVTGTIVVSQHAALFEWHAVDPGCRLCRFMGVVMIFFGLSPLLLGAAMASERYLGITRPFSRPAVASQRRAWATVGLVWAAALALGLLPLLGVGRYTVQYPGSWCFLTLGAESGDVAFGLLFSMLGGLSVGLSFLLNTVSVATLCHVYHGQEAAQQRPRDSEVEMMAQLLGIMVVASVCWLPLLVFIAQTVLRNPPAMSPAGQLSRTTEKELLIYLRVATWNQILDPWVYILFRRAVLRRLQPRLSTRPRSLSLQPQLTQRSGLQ

[5] = target: T3, NUAK family SNF1-like kinase 1 (Homo sapiens) (UniProt O60285); assay: Selectivity interaction (Kinase panel (literature)) EUB0001199aCl NUAK1; conditions: at 1 µM
T3 sequence (whole entry): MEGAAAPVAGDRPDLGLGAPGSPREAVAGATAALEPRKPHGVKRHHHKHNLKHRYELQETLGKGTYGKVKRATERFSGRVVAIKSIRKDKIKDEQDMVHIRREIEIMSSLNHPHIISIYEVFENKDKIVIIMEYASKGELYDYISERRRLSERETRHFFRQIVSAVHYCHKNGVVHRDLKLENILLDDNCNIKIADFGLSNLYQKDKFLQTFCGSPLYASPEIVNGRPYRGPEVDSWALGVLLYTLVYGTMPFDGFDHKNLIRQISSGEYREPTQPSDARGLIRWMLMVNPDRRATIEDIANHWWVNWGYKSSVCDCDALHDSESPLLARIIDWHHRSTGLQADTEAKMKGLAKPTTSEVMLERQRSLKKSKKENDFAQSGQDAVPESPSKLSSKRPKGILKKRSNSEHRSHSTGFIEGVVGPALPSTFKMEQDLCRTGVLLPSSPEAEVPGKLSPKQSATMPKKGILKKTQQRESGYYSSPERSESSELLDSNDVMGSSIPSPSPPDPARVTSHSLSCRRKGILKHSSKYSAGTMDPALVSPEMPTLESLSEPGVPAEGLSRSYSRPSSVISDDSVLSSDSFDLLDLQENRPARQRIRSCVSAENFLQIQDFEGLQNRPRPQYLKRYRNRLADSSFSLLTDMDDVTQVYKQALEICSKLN

[6] = target: NUAK family SNF1-like kinase 1 (Homo sapiens, UniProt O60285); assay: Selectivity interaction (Enzymatic assay) EUB0001199aCl NUAK1
[7] = target: T4, Serine/threonine-protein kinase TBK1 (Homo sapiens) (UniProt Q9UHD2); assay: Selectivity interaction (ActivX KiNativ screen (kinase selectivity in THP-1 cell lysates)) EUB0000639a TBK1; format: subcellular; conditions: lysate, at 0.01 µM
T4 sequence (whole entry): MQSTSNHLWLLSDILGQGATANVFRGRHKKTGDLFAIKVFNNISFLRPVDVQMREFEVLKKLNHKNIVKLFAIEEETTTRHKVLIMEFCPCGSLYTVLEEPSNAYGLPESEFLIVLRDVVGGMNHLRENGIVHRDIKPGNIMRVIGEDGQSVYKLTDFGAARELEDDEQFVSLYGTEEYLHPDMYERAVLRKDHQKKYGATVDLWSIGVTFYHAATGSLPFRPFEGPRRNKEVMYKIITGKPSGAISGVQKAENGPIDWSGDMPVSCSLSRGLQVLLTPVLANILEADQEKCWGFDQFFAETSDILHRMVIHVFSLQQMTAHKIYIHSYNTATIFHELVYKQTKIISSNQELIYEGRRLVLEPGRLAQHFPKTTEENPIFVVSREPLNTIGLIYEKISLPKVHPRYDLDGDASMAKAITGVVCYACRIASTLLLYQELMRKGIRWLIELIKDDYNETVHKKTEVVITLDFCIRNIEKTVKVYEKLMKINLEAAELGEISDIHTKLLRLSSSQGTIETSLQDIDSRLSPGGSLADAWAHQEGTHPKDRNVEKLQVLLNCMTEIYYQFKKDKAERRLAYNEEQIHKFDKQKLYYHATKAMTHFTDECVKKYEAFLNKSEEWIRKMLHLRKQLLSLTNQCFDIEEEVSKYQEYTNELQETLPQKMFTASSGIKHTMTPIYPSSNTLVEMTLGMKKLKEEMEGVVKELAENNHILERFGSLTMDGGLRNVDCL

[8] = system: Epidermal growth factor receptor (Homo sapiens), P00533 [UNDEFINED MUTATION]; assay: Selectivity interaction (Ambit KINOMEscan and KiNATiv profiling in Jurkat cells) EUB0000090b EGFR; format: cell-based; conditions: at 1 µM
Sequence of Epidermal growth factor receptor (Homo sapiens), P00533 [UNDEFINED MUTATION] (P00533 whole entry, looked up, change not shown): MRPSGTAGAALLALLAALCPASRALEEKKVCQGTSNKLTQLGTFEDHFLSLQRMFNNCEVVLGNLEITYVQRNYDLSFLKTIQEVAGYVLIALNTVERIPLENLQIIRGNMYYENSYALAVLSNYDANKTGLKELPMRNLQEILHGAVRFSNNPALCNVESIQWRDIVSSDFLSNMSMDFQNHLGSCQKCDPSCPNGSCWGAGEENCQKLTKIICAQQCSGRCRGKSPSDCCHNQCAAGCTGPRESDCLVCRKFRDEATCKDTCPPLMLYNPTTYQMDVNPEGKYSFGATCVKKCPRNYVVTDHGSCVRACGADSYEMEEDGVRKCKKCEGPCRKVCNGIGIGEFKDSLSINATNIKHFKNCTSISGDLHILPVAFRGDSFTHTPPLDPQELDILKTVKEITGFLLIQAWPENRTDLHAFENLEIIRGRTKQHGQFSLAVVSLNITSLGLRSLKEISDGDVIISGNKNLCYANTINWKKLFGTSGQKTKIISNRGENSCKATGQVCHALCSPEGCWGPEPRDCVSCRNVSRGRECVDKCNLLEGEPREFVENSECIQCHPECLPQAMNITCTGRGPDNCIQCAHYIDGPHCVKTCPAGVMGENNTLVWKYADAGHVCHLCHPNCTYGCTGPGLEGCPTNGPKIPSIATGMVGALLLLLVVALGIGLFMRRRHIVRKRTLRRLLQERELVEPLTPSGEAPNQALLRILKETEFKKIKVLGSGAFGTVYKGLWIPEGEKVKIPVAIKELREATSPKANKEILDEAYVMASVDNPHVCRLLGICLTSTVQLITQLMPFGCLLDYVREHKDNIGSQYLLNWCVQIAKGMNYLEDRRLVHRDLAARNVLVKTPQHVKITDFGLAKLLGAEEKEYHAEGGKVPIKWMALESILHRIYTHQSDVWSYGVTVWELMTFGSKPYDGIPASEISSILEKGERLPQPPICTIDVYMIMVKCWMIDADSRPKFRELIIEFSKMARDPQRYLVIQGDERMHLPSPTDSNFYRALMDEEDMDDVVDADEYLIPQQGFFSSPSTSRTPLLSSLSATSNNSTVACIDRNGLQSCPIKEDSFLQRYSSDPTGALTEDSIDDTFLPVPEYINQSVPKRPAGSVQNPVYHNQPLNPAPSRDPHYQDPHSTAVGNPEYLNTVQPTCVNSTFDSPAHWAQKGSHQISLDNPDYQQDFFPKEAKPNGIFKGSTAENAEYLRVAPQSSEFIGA

Nc1cnc(N2CCc3cc(S(=O)(=O)Nc4c(F)cc(Cl)cc4F)cc(N4CCCC4=O)c32)nc1 [TP-020n]
% of inhibition [1]: 4.68%

Cn1cc(-n2cnc3c(NCc4nc5cc(Cl)c(Cl)cc5[nH]4)nc(N4CCOCC4)nc32)cn1
% of control [2]: 6.71%

O=C(NOC[C@H](O)CO)c1ccc(F)c(F)c1Nc1ccc(I)cc1F
% of control [3]: 100%

CCC(=O)N1CC[C@H](Nc2ncnc3c2CN(c2cnc(OC)c(C(F)(F)F)c2)CC3)C1 [LENIOLISIB]
pIC50 [4]: < 4.52

CN1Cc2nccc(-c3cn(C)nc3-c3ccc(F)cc3)c2C1=O
% of inhibition [5]: -6% | pIC50 [6]: 4.99

CC[C@@H]1[C@H](F)C(=O)N[C@@H]1COc1nccc2cc(C(N)=O)c(OC)cc12 [ZIMLOVISERTIB]
% of inhibition [7]: 1.3%

CN(C)C/C=C/C(=O)Nc1ccc(C(=O)N2CCCC(Nc3ncc(Cl)c(-c4c[nH]c5ccccc45)n3)C2)cc1 (stereo not drawn)
% of control [8]: 77%
